From ChEMBL document CHEMBL1909046, “DrugMatrix in vitro pharmacology data”

Tests used:
[1] = molecular target: Sigma non-opioid intracellular receptor 1 (Homo sapiens, UniProt Q99720); test: DRUGMATRIX: Sigma1 radioligand binding (ligand: [3H] Haloperidol); format: cell membranes, Jurkat, Membrane; details: jurkat; Not Active = under 50% inhibition at 10 µM
[2] = molecular target: 5-hydroxytryptamine receptor 1B (Rattus norvegicus, UniProt P28564); format: cell membranes, Wistar, Cerebral cortex, Membrane; further: in other assays of this panel Not Active means under 50% inhibition at 10 µM
Chain of 5-hydroxytryptamine receptor 1B (P28564 whole entry): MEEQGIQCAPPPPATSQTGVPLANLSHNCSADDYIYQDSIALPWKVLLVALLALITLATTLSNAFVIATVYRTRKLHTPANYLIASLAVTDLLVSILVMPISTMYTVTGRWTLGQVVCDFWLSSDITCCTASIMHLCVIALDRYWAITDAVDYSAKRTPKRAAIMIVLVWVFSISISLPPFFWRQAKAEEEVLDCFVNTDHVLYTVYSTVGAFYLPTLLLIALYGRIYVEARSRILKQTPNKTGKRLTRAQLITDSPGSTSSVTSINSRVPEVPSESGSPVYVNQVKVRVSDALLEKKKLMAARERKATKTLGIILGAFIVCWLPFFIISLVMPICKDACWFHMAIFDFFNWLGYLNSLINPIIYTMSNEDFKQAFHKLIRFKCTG

[3] = DRUGMATRIX: Interleukin IL-1 radioligand binding (ligand: [125I] interleukin 1beta); format: cell membranes, Membrane; details: nih3t3; Not Active = under 50% inhibition at 10 µM
Mu-type opioid receptor = Mu-type opioid receptor (Homo sapiens, UniProt P35372); test: DRUGMATRIX: Opiate mu (OP3, MOP) radioligand binding (ligand: [3H] Diprenorphine); format: cell membranes, CHO-K1, Membrane; details: cho-k1; Not Active = under 50% inhibition at 10 µM
Chain of Mu-type opioid receptor (P35372 whole entry): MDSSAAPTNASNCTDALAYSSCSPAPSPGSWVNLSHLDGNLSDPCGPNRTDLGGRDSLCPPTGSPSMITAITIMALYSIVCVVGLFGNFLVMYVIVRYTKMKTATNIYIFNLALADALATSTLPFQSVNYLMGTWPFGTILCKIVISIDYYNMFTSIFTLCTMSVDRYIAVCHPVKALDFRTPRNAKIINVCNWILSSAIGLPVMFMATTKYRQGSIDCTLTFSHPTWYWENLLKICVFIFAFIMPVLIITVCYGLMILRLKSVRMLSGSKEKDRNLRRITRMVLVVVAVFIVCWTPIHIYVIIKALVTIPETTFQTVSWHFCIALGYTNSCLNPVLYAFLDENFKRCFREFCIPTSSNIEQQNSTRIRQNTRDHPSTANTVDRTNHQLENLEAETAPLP

[4] = molecular target: T1, Angiotensin-converting enzyme (Oryctolagus cuniculus, UniProt P12822); test: biochemical; format: tissue-based, Lung;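 further: enzymatic inhibition of angiotensin-converting enzyme measured with FAPGG as the substrate; in other assays of this panel Not Active means under 50% inhibition at 10 µM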
T1 sequence (P12822 whole entry): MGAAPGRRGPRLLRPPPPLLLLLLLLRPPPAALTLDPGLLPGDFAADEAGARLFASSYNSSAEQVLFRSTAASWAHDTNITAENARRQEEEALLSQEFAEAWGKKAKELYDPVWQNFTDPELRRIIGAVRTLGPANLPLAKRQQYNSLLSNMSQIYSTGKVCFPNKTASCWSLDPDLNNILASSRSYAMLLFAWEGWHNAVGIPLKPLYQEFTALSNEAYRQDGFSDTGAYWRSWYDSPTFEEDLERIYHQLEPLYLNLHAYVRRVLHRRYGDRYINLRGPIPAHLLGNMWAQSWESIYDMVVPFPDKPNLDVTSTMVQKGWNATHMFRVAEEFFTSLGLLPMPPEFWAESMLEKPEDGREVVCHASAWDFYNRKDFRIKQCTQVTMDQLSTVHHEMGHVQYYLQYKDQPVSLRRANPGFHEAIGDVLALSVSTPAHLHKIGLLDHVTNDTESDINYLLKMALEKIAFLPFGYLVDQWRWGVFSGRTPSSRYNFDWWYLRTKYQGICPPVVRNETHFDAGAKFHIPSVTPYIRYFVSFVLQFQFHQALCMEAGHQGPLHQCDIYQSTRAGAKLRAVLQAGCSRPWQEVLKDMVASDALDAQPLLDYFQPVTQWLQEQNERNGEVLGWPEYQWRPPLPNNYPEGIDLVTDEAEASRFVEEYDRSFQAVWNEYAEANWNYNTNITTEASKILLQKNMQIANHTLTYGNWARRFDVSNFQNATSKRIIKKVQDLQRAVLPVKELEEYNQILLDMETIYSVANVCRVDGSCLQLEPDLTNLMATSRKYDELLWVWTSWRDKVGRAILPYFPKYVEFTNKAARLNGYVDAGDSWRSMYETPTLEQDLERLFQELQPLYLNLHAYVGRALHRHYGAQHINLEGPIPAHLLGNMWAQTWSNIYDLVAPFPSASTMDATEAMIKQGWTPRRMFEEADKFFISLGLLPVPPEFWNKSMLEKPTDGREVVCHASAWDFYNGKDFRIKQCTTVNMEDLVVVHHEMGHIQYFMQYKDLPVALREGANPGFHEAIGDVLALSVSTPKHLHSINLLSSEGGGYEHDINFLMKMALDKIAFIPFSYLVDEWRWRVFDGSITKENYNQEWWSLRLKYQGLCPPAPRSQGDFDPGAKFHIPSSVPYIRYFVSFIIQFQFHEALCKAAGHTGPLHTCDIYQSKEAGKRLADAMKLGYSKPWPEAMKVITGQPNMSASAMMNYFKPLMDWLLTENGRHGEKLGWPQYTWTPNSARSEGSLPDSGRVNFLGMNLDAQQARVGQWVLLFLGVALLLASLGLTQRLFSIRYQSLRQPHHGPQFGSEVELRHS

[5] = DRUGMATRIX: Glutamate, Kainate radioligand binding (ligand: [3H] Kainic acid); format: cell membranes, Rattus norvegicus, Wistar, Brain, Membrane; details: Not Active = under 50% inhibition at 10 µM
[6] = molecular target: C-C chemokine receptor type 5 (Homo sapiens, UniProt P51681); format: cell membranes, HEK293, Membrane; details: hek293; further: in other assays of this panel Not Active means under 50% inhibition at 10 µM
Chain of C-C chemokine receptor type 5 (P51681 whole entry): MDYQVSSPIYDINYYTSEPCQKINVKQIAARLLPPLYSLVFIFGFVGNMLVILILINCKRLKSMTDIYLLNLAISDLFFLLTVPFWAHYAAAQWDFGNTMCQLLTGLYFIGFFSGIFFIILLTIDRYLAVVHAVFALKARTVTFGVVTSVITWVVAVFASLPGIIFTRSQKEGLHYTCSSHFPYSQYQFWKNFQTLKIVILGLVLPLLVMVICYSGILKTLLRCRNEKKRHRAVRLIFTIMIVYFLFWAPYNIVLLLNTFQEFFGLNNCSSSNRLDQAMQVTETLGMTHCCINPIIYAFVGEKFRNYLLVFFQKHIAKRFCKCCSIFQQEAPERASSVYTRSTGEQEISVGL

Chain of Sigma non-opioid intracellular receptor 1 (Q99720 whole entry): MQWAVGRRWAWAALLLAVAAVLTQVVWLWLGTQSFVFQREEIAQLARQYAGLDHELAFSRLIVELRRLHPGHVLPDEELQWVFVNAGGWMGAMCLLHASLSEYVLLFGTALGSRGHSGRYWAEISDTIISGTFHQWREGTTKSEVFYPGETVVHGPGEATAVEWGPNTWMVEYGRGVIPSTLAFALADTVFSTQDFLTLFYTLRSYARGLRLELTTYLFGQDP

C[N+](C)(C)CCOP(=O)([O-])OC[C@H](O)CO
Not Active: IC50 [1] | IC50 [2] | IC50 [3] | Ki [3] | IC50 (Mu-type opioid receptor) | IC50 [4] | IC50 [5] | Ki [5] | IC50 [6]

NC(=O)CN1CCCC1=O
Not Active: IC50 [1] | IC50 [2] | IC50 [3] | Ki [3] | IC50 (Mu-type opioid receptor) | IC50 [4] | IC50 [5] | Ki [5] | IC50 [6]

CN(CCOc1ccc(C[C@H](Nc2ccccc2C(=O)c2ccccc2)C(=O)O)cc1)c1ccccn1
Not Active: IC50 [1] | IC50 [2] | IC50 [3] | Ki [3] | IC50 (Mu-type opioid receptor) | IC50 [4] | IC50 [5] | Ki [5] | IC50 [6]

CC(=O)Nc1ccc2c(c1)Cc1ccccc1-2 [2-ACETYLAMINOFLUORENE]
Not Active: IC50 [1] | IC50 [2] | IC50 [3] | Ki [3] | IC50 (Mu-type opioid receptor) | IC50 [4] | IC50 [5] | Ki [5] | IC50 [6]

O=C(Nc1ccc(Cl)c(Cl)c1)c1cc(Cl)cc(Cl)c1O [3,3',4',5-TETRACHLOROSALICYLANILIDE]
Not Active: IC50 [1] | IC50 [2] | IC50 [3] | Ki [3] | IC50 (Mu-type opioid receptor) | IC50 [4] | IC50 [5] | Ki [5] | IC50 [6]

O=C(O)COC(=O)Cc1ccccc1Nc1c(Cl)cccc1Cl [ACECLOFENAC]
Not Active: IC50 [1] | IC50 [2] | IC50 [3] | Ki [3] | IC50 (Mu-type opioid receptor) | IC50 [4] | IC50 [5] | Ki [5] | IC50 [6]

CCO [ALCOHOL]
Not Active: IC50 [1] | IC50 [2] | IC50 [3] | Ki [3] | IC50 (Mu-type opioid receptor) | IC50 [4] | IC50 [5] | Ki [5] | IC50 [6]

OC[C@H]1O[C@@H]2O[C@H]3[C@H](O)[C@@H](O)[C@@H](O[C@H]4[C@H](O)[C@@H](O)[C@@H](O[C@H]5[C@H](O)[C@@H](O)[C@@H](O[C@H]6[C@H](O)[C@@H](O)[C@@H](O[C@H]7[C@H](O)[C@@H](O)[C@@H](O[C@H]1[C@H](O)[C@H]2O)O[C@@H]7CO)O[C@@H]6CO)O[C@@H]5CO)O[C@@H]4CO)O[C@@H]3CO [ALFADEX]
Not Active: IC50 [1] | IC50 [2] | IC50 [3] | Ki [3] | IC50 (Mu-type opioid receptor) | IC50 [4] | IC50 [5] | Ki [5] | IC50 [6]

Oc1ncnc2[nH]ncc12 [ALLOPURINOL]
Not Active: IC50 [1] | IC50 [2] | IC50 [3] | Ki [3] | IC50 (Mu-type opioid receptor) | IC50 [4] | IC50 [5] | Ki [5] | IC50 [6]

Nc1nc(N)c2nc(CNc3ccc(C(=O)N[C@@H](CCC(=O)O)C(=O)O)cc3)cnc2n1 [AMINOPTERIN]
Not Active: IC50 [1] | IC50 [2] | IC50 [3] | Ki [3] | IC50 (Mu-type opioid receptor) | IC50 [4] | IC50 [5] | Ki [5] | IC50 [6]

Nc1ccc(C(=O)O)c(O)c1 [AMINOSALICYLIC ACID]
Not Active: IC50 [1] | IC50 [2] | IC50 [3] | Ki [3] | IC50 (Mu-type opioid receptor) | IC50 [4] | IC50 [5] | Ki [5] | IC50 [6]

C[C@@H]1[C@H](O)[C@@H](C)/C=C/C=C/C=C/C=C/C=C/C=C/C=C/[C@H](O[C@@H]2O[C@H](C)[C@@H](O)[C@H](N)[C@@H]2O)C[C@@H]2O[C@](O)(C[C@@H](O)C[C@@H](O)[C@H](O)CC[C@@H](O)C[C@@H](O)CC(=O)O[C@H]1C)C[C@H](O)[C@H]2C(=O)O [AMPHOTERICIN B]
Not Active: IC50 [1] | IC50 [2] | IC50 [3] | Ki [3] | IC50 (Mu-type opioid receptor) | IC50 [4] | IC50 [5] | Ki [5] | IC50 [6]

CC(C)(C#N)c1cc(Cn2cncn2)cc(C(C)(C)C#N)c1 [ANASTROZOLE]
Not Active: IC50 [1] | IC50 [2] | IC50 [3] | Ki [3] | IC50 (Mu-type opioid receptor) | IC50 [4] | IC50 [5] | Ki [5] | IC50 [6]

C[C@]12CC[C@@H](O)C[C@@H]1CC[C@@H]1[C@@H]2CC[C@]2(C)C(=O)CC[C@@H]12 [ANDROSTERONE]
Not Active: IC50 [1] | IC50 [2] | IC50 [3] | Ki [3] | IC50 (Mu-type opioid receptor) | IC50 [4] | IC50 [5] | Ki [5] | IC50 [6]

CC(C)NCC(O)COc1ccc(CC(N)=O)cc1 (centres undefined) [ATENOLOL]
Not Active: IC50 [1] | IC50 [2] | IC50 [3] | Ki [3] | IC50 (Mu-type opioid receptor) | IC50 [4] | IC50 [5] | Ki [5] | IC50 [6]

NCC(CC(=O)O)c1ccc(Cl)cc1 (centres undefined) [BACLOFEN]
Not Active: IC50 [1] | IC50 [2] | IC50 [3] | Ki [3] | IC50 (Mu-type opioid receptor) | IC50 [4] | IC50 [5] | Ki [5] | IC50 [6]
